According to patent US12702677B2 (priority 2008, dated 2026):

Tests used:
[1] = system: matrix metalloproteinase 9 (MMP-9) expression; assay: Quantikine Human MMP-9 (total) immunoassay, MMP-9 expression in influenza-A-infected Vero cells; type: cell-based, African Green Monkey; settings: influenza A-infected Vero cell supernatants, FIGS. 5 and 6
Protocol: A Quantikine Human MMP-9 (total) Immunoassay Assay, R&D Systems, was used to quantify expression of MMP-9 in infected cells according to the manufacturer's protocol, which is incorporated herein by reference.
Vero cells were plated at 1e^5 cells/mL in a 100 uL volume in tissue culture treated 96 well plates. The following day cells were infected with virus at a multiplicity of infection of 10 and viral activity was measured. For testing compounds, cells were preincubated with compound 1 hr prior to infection. After overnight incubation, the cells were harvested, lysed, and supernatants were subjected to assay.
This MMP-9 assay employs the quantitative sandwich enzyme immunoassay technique. A monoclonal antibody specific for MMP-9 has been pre-coated onto a microplate. Standards and samples are pipetted into the wells, and MMP-9 is bound by the immobilized antibody. After washing away unbound substances, an enzyme-linked polyclonal antibody specific for MMP-9 is added to the wells. Following a wash to remove unbound antibody-enzyme reagent, a substrate solution is added to the wells and color develops in proportion to the amount of total MMP-9 (pro and/or active) bound in the initial step. The color development is stopped and the intensity of the color is measured.
Test formulations are shown in Example 5, Table 1. […]

A or B influenza virus = settings: started during the first 48 hours after onset of symptoms; cited from earlier work
[2] = adults; cited from earlier work
[3] = animal studies, substantially high doses; cited from earlier work

## CCOC(=O)C1=C[C@@H](OC(CC)CC)[C@H](NC(C)=O)[C@@H](N)C1 [Formula T, oseltamivir phosphate]
[1]
  inhibition of expression of MMP-9: pronounced dose-dependent inhibition of expression of MMP-9
[1]; listed as Tamiflu®
  inhibition of expression of MMP-9: inhibits expression of MMP-9
A or B influenza virus
  reduction of the duration of a typical seven day illness: about one

## CC(=O)N[C@H]1[C@H]([C@H](O)[C@H](O)CO)OC(C(=O)O)=C[C@@H]1N=C(N)N [Relenza®, zanamivir]
A or B influenza virus
  reduction of the duration of a typical seven day illness: about one

## Cc1ncc(CO)c(CO)c1O [Vitamin B6, Pyridoxine]
[2]
  safe intake: up to 200 mg per day

## CC(N)C12CC3CC(CC(C3)C1)C2 (stereo not drawn) [rimantadine]
[3]
  teratogenicity and embryotoxicity: teratogenic and embryotoxic
